Patent publication US4551532A, “Ethylene glycol derivatives having anti-protozoan, anti-fungal and anti-tumor activity” (priority 1980, dated 1985)

How the values were obtained:
Aspergillus niger = test: antifungal activity, serial dilution method; assay type: cell-based; conditions: Aspergillus niger (black mold); 1% glucose-bouillon agar; read-out: MIC
[1] = system: Colletotrichum lagenarium; test: antifungal activity, serial dilution method; assay type: cell-based; conditions: Colletotrichum orbiculare; Colletotrichum lagenarium (cucumber anthracnose); 1% glucose-bouillon agar; read-out: MIC
[2] = system: mouse spontaneous myelocytic leukemia cells MI (resistant clone); test: cell proliferation inhibiting activity against MI cells; assay type: cell-based; conditions: read-out: cell proliferation inhibiting activity (GD50 value)
CDF1 mice = test: toxicity in CDF1 mice; assay type: in vivo, mouse; conditions: intraperitoneal 100 mg/kg, observation period one week
Method: (§1) The compounds of this invention are of relatively low toxicity. For example, the compound of Example 7 causes no deaths in CDF1 mice even at an intraperitoneal dose of 100 mg/kg (observation period: one week). The hemolytic activity of these compounds is also low in general. For example, in a hemolysis test (with human erythrocytes) by the method of Gottfried et al. [J. Lipid Research, 4, 57 (1963)], the 50% hemolytic concentration of the compound of Example 15 was about 10 μg/ml.

Botrytis cinerea = test: antifungal activity, serial dilution method; assay type: cell-based; conditions: Botrytis cinerea (gray mold); 1% glucose-bouillon agar
[3] = system: Rauscher virus-induced promyelocytic leukemia cells R453; test: cell proliferation inhibiting activity against R453 cells; assay type: cell-based; conditions: Mus musculus, read-out: cell proliferation inhibiting activity (GD50 value)
Rhodotorula = test: antimycotic activity, paper disk inhibition circle; assay type: cell-based; conditions: 48 h, 8 mm paper disk, 3 mg/ml, 37° C., 2 days, read-out: Growth inhibition Rhodotorula
Method: (§2) Referring to the antimycotic activity presented in Table 2, Cryptoccoccus neoformans and others were used as the test microbes, a paper disk (8 mm in diameter) was immersed in an aqueous solution of each test compound having a concentration of 3 mg/ml, air dried and placed on an agar medium, then incubation was conducted at 37° C. for 2 days, and the inhibition circle was measured. When the diameter of the inhibition circle was not larger than 8 mm, 8-10 mm, 10-20 mm, or larger than 20 mm, the activity was judged as -, ±, + or ++, respectively.

Cryptococcus neoformans = test: antimycotic activity, paper disk inhibition circle; assay type: cell-based; conditions: 48 h, 8 mm paper disk, 3 mg/ml, 37° C., 2 days, read-out: Growth inhibition Cryptococcus
Method: as §2

Hamigera = test: antimycotic activity, paper disk inhibition circle; assay type: cell-based; conditions: 48 h; 8 mm paper disk, 3 mg/ml, 37° C., 2 days; read-out: Growth inhibition Hamigera
Method: as §2

[4] = system: Tetrahymena pyriformis W strain; test: antiprotozoal activity, broth dilution method; assay type: cell-based; conditions: 28° C., 44-48 hours, pH 7.0, read-out: Growth inhibition MIC Tetrahymena
Saccharomyces cerevisiae = test: antifungal activity, serial dilution method; assay type: cell-based; conditions: Saccharomyces cerevisiae (brewer's yeast); 1% glucose-bouillon agar; read-out: MIC
Pyricularia oryzae = test: microbe, parasite or virus in culture; assay type: cell-based
[5] = system: human myelocytic leukemia cells HL-60; test: growth inhibiting effect (IG effect) on HL-60; assay type: cell-based; conditions: HL-60, 120 h, 5 day culture, read-out: IG effect on HL-60 GD50
Cochliobolus miyabeanus = test: antifungal activity, serial dilution method; assay type: cell-based; conditions: Bipolaris oryzae
Leptosphaeria salvinii = test: antifungal activity, serial dilution method; assay type: cell-based; conditions: Nakataea oryzae; Leptosphaeria salvinii (rice stem rot); 1% glucose-bouillon agar; read-out: MIC
Penicillium = test: antifungal activity, serial dilution method; assay type: cell-based, Penicillium niger; conditions: Penicillium niger (blue mold); 1% glucose-bouillon agar; read-out: MIC
Sclerotinia sclerotiorum = test: antifungal activity, serial dilution method; assay type: cell-based; conditions: Sclerotinia sclerotiorum (kidney bean stem rot); 1% glucose-bouillon agar
[6] = hemolysis test by the method of Gottfried et al.; assay type: cell-based, human; conditions: human, erythrocytes
Method: as §1

human erythrocytes = test: hemolysis test by the method of Gottfried et al.; assay type: cell-based; conditions: 5% human albumin, relative to without albumin
Method: as §1

| SMILES | MIC (Aspergillus niger) | MIC [1] | IC50 [2] | deaths (CDF1 mice) | MIC (Botrytis cinerea) | IC50 [3] | zone of inhibition at 3000 µg/mL (Rhodotorula) | zone of inhibition at 3000 µg/mL (Cryptococcus neoformans) | zone of inhibition at 3000 µg/mL (Hamigera) | MIC [4] | MIC (Saccharomyces cerevisiae) | MIC (Pyricularia oryzae) | IC50 [5] | MIC (Cochliobolus miyabeanus) | MIC (Leptosphaeria salvinii) | MIC (Penicillium) | MIC (Sclerotinia sclerotiorum) | HC50 [6] | 50% hemolytic concentration in the presence of human albumin (human erythrocytes) |
| --- | --- | --- | --- | --- | --- | --- | --- | --- | --- | --- | --- | --- | --- | --- | --- | --- | --- | --- | --- |
| CCCCCCCC/C=C\CCCCCCCCOCCOCCOP(=O)([O-])OCC[N+](C)(C)C [Example 7, 3,6-Dioxatetracos-15(Z)-enyl 2-trimethylammonioethyl phosphate] | 25 µg/mL | 25 µg/mL | 8 to 11 µg/mL | no deaths | 6.25 µg/mL | 2 to 3 µg/mL | 10 to 20 mm | > 20 mm | > 20 mm | 0.4 µg/mL | 12.5 µg/mL | 3.12 µg/mL | 1 to 2 µg/mL | 25 µg/mL | 25 µg/mL |  |  |  |  |
| CCCCCCCCCCCCOCCOCCOP(=O)([O-])OCC[n+]1ccccc1 [Example 15, 2-[2-Dodecyloxy)ethoxy]ethyl 2-pyridinioethyl phosphate] | 25 µg/mL | 12.5 µg/mL |  |  | 12.5 µg/mL |  | 10 to 20 mm | > 20 mm | 10 to 20 mm | > 4 µg/mL | 50 µg/mL | 25 µg/mL |  | 25 µg/mL | 25 µg/mL | 12.5 µg/mL | 25 µg/mL | ~10 µg/mL | several times as high |
